Reference: the supplement of paper PMC10307832

Experiments:
Experiment in all cases: relative viability (nuclei count vs DMSO), 5 days (fraction); higher = more cells survive
[1] = compound: CN(c1ncccc1CNc1nc(Nc2ccc3c(c2)CC(=O)N3)ncc1C(F)(F)F)S(C)(=O)=O + C[C@@H](Oc1cc(-c2cnn(C3CCNCC3)c2)cnc1N)c1c(Cl)ccc(F)c1Cl [Crizotinib] (partner 1 µM)
Outline: (§1)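 Nuclei were stained with Hoechst during a one-step fixation (final 0.05% Triton X-100, 1% formaldehyde, 1 ug/ml Hoechst) carried out 5 days after dosing, then counted on 4× images. The cells, lung cancer lines in 1536-well plates, had been dosed by pin tool the day after seeding with one drug alone or a fixed anchor-drug dose plus five library-drug doses (not always all listed) in √10 steps. Relative viability is the nuclei count in treated wells divided by that in vehicle wells, and each value is the median of duplicate plates.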

[2] = compound: CN(c1ncccc1CNc1nc(Nc2ccc3c(c2)CC(=O)N3)ncc1C(F)(F)F)S(C)(=O)=O + CC(=O)Nc1cccc(-n2c(=O)n(C3CC3)c(=O)c3c(Nc4ccc(I)cc4F)n(C)c(=O)c(C)c32)c1 [Trametinib] (partner 0.02 µM)
Outline: as §1

[3] = compound: CN(c1ncccc1CNc1nc(Nc2ccc3c(c2)CC(=O)N3)ncc1C(F)(F)F)S(C)(=O)=O + N=C(N)NC(=N)NCCc1ccccc1 [Phenformin] (partner 250 µM)
Outline: as §1

[4] = compound: CN(c1ncccc1CNc1nc(Nc2ccc3c(c2)CC(=O)N3)ncc1C(F)(F)F)S(C)(=O)=O + COc1cccc2cc(-c3nc([C@H]4CC[C@H](C(=O)O)CC4)n4ncnc(N)c34)[nH]c12 [OSI-027] (partner 0.5 µM)
Outline: as §1

Cell Line	relative viability ([1]; first compound 0.01 µM)	relative viability ([1]; first compound 0.03162 µM)	relative viability ([1]; first compound 0.1 µM)	relative viability ([1]; first compound 0.3162 µM)	relative viability ([1]; first compound 1 µM)	relative viability ([2]; first compound 0.01 µM)	relative viability ([2]; first compound 0.03162 µM)	relative viability ([2]; first compound 0.1 µM)	relative viability ([2]; first compound 0.3162 µM)	relative viability ([2]; first compound 1 µM)	relative viability ([3]; first compound 0.01 µM)	relative viability ([3]; first compound 0.03162 µM)	relative viability ([3]; first compound 0.1 µM)	relative viability ([3]; first compound 0.3162 µM)	relative viability ([3]; first compound 1 µM)	relative viability ([4]; first compound 0.01 µM)	relative viability ([4]; first compound 0.03162 µM)	relative viability ([4]; first compound 0.1 µM)	relative viability ([4]; first compound 0.3162 µM)	relative viability ([4]; first compound 1 µM)
HCC-366	0.588	0.964	0.509	0.606	0.236	0.41	0.398	0.296	0.303	0.308	0.662	0.695	0.614	0.577	0.606	0.786	1.01	0.846	0.996	0.973
HCC-827	0.893	0.905	1	0.893	0.851	0.574	0.517	0.496	0.56	0.495	0.402	0.465	0.432	0.441	0.404	0.765	0.775	0.821	0.799	0.759
HOP-62	0.926	1.04	0.962	0.809	1.04	0.353	0.438	0.379	0.332	0.306	0.776	0.681	0.628	0.675	0.558	0.956	0.804	0.743	0.825	0.731
IA-LM	0.862	0.924	0.908	0.91	0.714	–	–	–	–	–	–	–	–	–	–	–	–	–	–	–
LC-2-ad	0.491	0.465	0.514	0.435	0.469	0.876	0.932	0.926	0.905	0.793	0.52	0.544	0.548	0.567	0.524	0.874	0.851	0.905	0.827	0.758
LCLC-97TM1	–	0.434	0.416	0.224	0.181	0.207	0.189	0.184	0.206	0.124	0.345	0.437	0.425	0.397	0.401	0.512	0.524	0.42	0.458	0.576
LCLC-103H	1.14	1.08	1.11	0.906	0.895	0.674	0.687	0.675	0.704	0.673	0.337	0.298	0.277	0.348	0.318	0.497	0.399	0.422	0.448	0.424
LK-2	0.248	0.215	0.254	0.21	0.192	0.897	0.973	0.679	0.73	0.601	0.376	0.386	0.63	0.517	0.532	0.198	0.157	0.244	0.205	0.18
LOU-NH91	0.78	0.751	0.727	0.692	0.763	0.802	0.793	0.75	0.819	0.787	0.704	0.776	0.726	0.716	0.792	0.714	0.82	0.685	0.823	0.801
LU99A	0.594	0.584	0.584	0.758	0.633	0.559	0.663	0.564	0.65	0.574	0.874	0.706	0.952	0.924	1.15	0.284	0.279	0.27	0.277	0.352
LXF-289	0.851	0.875	0.824	0.788	0.773	0.706	0.693	0.648	0.664	0.633	0.542	0.55	0.538	0.521	0.525	0.806	0.807	0.707	0.641	0.762
NCI-H23	0.444	0.483	0.456	0.59	0.457	0.392	0.319	0.388	0.466	0.404	0.856	0.835	0.864	0.787	0.734	0.735	0.55	0.625	0.769	0.547
NCI-H522	–	–	–	–	–	0.73	0.813	0.698	0.812	0.705	0.664	0.645	0.629	0.819	0.696	0.717	0.703	0.726	0.742	0.798
NCI-H1395	–	–	–	–	–	0.979	1.07	1.06	1.14	1.02	0.455	0.463	0.459	0.454	0.417	0.657	0.606	0.671	0.738	0.721
NCI-H1563	0.855	0.83	0.91	0.864	0.799	–	–	–	–	–	0.677	0.686	0.683	0.634	0.649	0.78	0.79	0.771	0.788	0.753
NCI-H1648	–	–	–	–	–	0.417	0.435	0.462	0.392	0.301	–	–	–	–	–	0.28	0.237	0.266	0.25	0.24
NCI-H1703	0.586	0.678	1.15	0.986	0.417	–	–	–	–	–	–	–	–	–	–	–	–	–	–	–
NCI-H1793	–	–	–	–	–	0.473	0.4	0.419	0.519	0.567	0.398	0.384	0.403	0.247	0.197	0.238	0.276	0.246	0.288	0.297
NCI-H2342	–	–	–	–	–	0.906	0.819	0.753	0.774	0.806	0.638	0.563	0.475	0.522	0.475	0.579	0.614	0.617	0.519	0.57
SW 900	–	–	–	–	–	0.846	0.726	0.761	0.757	0.739	0.745	0.735	0.602	0.515	0.581	0.623	0.574	0.659	0.514	0.49
